From patent US10881107B2, “Antimicrobial compositions containing alkylpyrazines and their uses” (ROOMBIOTIC GMBH, priority 2015, dated 2021)

Test: antimicrobial activity test of alkyl pyrazine compounds or mixtures
Type: cell-based
From the text: Several alkyl pyrazine compounds or mixtures thereof have been tested for their antimicrobial activity.

Structure (SMILES): Cc1nc(C(C)C)c(C(C)C)nc1C(C)C [TS-73]
- Antimicrobial activity: No

Structure (SMILES): Cc1nccnc1CC(C)C [2-Isobutyl-3-methylpyrazine]
- Antimicrobial activity: Yes
- Degree of antimicrobiai activity: Strong

Structure (SMILES): CC(=O)c1cnccn1 [2-Acetylpyrazine, reference compound]
- Antimicrobial activity: No

Structure (SMILES): COc1nccnc1CC(C)C [2-Isobutyl-3-methoxypyrazine]
- Antimicrobial activity: Yes
- Degree of antimicrobiai activity: Strong

Structure (SMILES): CC(C)Cc1cnccn1 [2-Isobutylpyrazine]
- Antimicrobial activity: Yes
- Degree of antimicrobiai activity: Strong

Structure (SMILES): Cc1cnc(C)cn1 [2,5-Dimethylpyrazine, reference compound]
- Antimicrobial activity: Yes
- Degree of antimicrobiai activity: Weak

Structure (SMILES): Cc1cnc(C)c(C)n1 [2,3,5-Trimethylpyrazine, reference compound]
- Antimicrobial activity: No

Structure (SMILES): CC(C)c1cnccn1 [2-Isopropylpyrazine]
- Antimicrobial activity: Yes
- Degree of antimicrobiai activity: Strong

Structure (SMILES): Cc1nccnc1C [2,3-Dimethylpyrazine, reference compound]
- Antimicrobial activity: Yes
- Degree of antimicrobiai activity: Weak
